From ChEMBL document CHEMBL1201862, “PubChem BioAssay data set” (2004)
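These data come from cells grown in 96-well plates and exposed to compound for 48 hours at five concentrations. The concentration for 50% growth inhibition is given as GI50.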 The source made the active and inactive calls. Cut-off read from the data, not from the text of the source: active = GI50 up to about 1.1 µM and inactive = higher.

What was measured:
Assay in all cases: DTP human tumour cell line panel, 48 h
T47D = system: T47D
Malme-3M = system: Malme-3M
NCI-H226 = system: NCI-H226
OVCAR-4 = system: OVCAR-4
CAKI-1 = system: CAKI-1
NCI-H522 = system: NCI-H522
A549 = system: A549
RXF 393 = system: RXF 393
NCI-H460 = system: NCI-H460
EKVX = system: EKVX
HCT-15 = system: HCT-15
ACHN = system: ACHN
HL-60 = system: HL-60
OVCAR-3 = system: OVCAR-3
UACC-257 = system: UACC-257
OVCAR-8 = system: OVCAR-8
MDA-MB-231 = system: MDA-MB-231
UACC-62 = system: UACC-62
NCI-H23 = system: NCI-H23
K562 = system: K562
PC-3 = system: PC-3
SF-295 = system: SF-295
SNB-19 = system: SNB-19
HOP-62 = system: HOP-62
SNB-75 = system: SNB-75
RPMI-8226 = system: RPMI-8226
A498 = system: A498
COLO 205 = system: COLO 205
Hs-578T = system: Hs-578T
MCF7 = system: MCF7
DU-145 = system: DU-145
SK-MEL-5 = system: SK-MEL-5
OVCAR-5 = system: OVCAR-5
BT-549 = system: BT-549
SK-OV-3 = system: SK-OV-3
SF-268 = system: SF-268
MOLT-4 = system: MOLT-4
SK-MEL-28 = system: SK-MEL-28
SR = system: SR
UO-31 = system: UO-31
IGROV-1 = system: IGROV-1
HT-29 = system: HT-29
HCT-116 = system: HCT-116
HCC 2998 = system: HCC 2998
SN12C = system: SN12C
TK-10 = system: TK-10
KM12 = system: KM12
SF-539 = system: SF-539
M14 = system: M14
SW-620 = system: SW-620
LOX IMVI = system: LOX IMVI
MDA-N = system: MDA-N
CCRF-CEM = system: CCRF-CEM
MDA-MB-435 = system: MDA-MB-435
NCI/ADR-RES = system: NCI/ADR-RES
U-251 = system: U-251
786-0 = system: 786-0
SK-MEL-2 = system: SK-MEL-2

Measured: GI50

N#Cc1c(NC(=S)Nc2ccc(Cl)cc2)sc2c1CCN(N1CCc3c(sc(NC(=S)Nc4ccc(Cl)cc4)c3C#N)C1)C2
inactive: T47D 21.6 µM | Malme-3M 55.2 µM | NCI-H226 16.1 µM | OVCAR-4 59.3 µM | CAKI-1 63.8 µM | NCI-H522 18.2 µM | A549 28.5 µM | RXF 393 18.3 µM | NCI-H460 32.4 µM | EKVX 18.2 µM | ACHN 12.7 µM | HL-60 30.2 µM | OVCAR-3 74.5 µM | UACC-257 29.7 µM | OVCAR-8 29.3 µM | MDA-MB-231 12.7 µM | UACC-62 10.6 µM | NCI-H23 33 µM | K562 22.4 µM | PC-3 37.4 µM | SF-295 16.1 µM | SNB-19 64 µM | HOP-62 16 µM | SNB-75 69 µM | RPMI-8226 > 100 µM | A498 15.7 µM | COLO 205 16 µM | Hs-578T 44.8 µM | MCF7 37.2 µM | DU-145 37.8 µM | SK-MEL-5 10.5 µM | OVCAR-5 13.8 µM | BT-549 36.6 µM | SK-OV-3 > 100 µM | SF-268 38.9 µM | MOLT-4 48.1 µM | SK-MEL-28 24 µM | SR > 100 µM | UO-31 14.9 µM | IGROV-1 16.1 µM | HT-29 13.6 µM | HCT-116 21.6 µM | HCC 2998 50.2 µM | SN12C 39.3 µM | TK-10 41 µM | KM12 55.2 µM | SF-539 16.8 µM | M14 11 µM | SW-620 30.1 µM | LOX IMVI 5.62 µM | MDA-N 28.7 µM | CCRF-CEM 33 µM | MDA-MB-435 27.1 µM | NCI/ADR-RES 76.6 µM | U-251 29.2 µM | 786-0 21 µM | SK-MEL-2 20.3 µM
24 µM: HCT-15
